Results as given in patent US20220185822A1, “SELECTIVE LIGANDS OF HUMAN CONSTITUTIVE ANDROSTANE RECEPTOR” (USTAV ORGANICKE CHEMIE A BIOCHEMIE AV CR, V.V.I., priority 2019, published 2022).
pEC50, pIC50: −log10 of the molar value. Entries after “also recorded” stand apart in the source; their conditions may differ.

Tests used:
[1] = biological target: T1, human CAR ligand-binding domain (LBD) (Homo sapiens, UniProt Q14994); assay: TR-FRET CAR Coactivator Binding Assay (LanthaScreen); format: biochemical
T1 construct: purchased ThermoFisher Scientific PV4836
T1 sequence (Q14994 103-348 isoform Q14994-2 limits assumed, other chains not shown): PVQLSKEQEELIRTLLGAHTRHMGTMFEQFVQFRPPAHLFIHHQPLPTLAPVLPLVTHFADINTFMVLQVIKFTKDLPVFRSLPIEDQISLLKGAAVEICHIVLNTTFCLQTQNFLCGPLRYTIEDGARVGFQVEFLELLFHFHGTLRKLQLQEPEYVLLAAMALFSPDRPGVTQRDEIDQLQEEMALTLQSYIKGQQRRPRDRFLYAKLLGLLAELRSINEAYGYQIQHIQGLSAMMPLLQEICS
Excerpt: The assay uses two fluorophores: a terbium-labeled anti-GST antibody interacting with glutathione-S-transferase tagged human CAR ligand-binding domain (LBD) and a fluorescein-labeled PGC1α coactivator peptide. […] Values above 1 represent the agonistic activity on CAR with subsequent CAR-PGC1α interaction.

[2] = biological target: T2, human CAR LBD (Homo sapiens, UniProt Q14994); assay: CAR LBD assembly assay (two hybrid luciferase reporter in HepG2 cells); format: cell-based
T2 construct: C (151-349 aa) and N (103-150 aa) terminal parts of human CAR LBD; N (103-150 aa) terminal parts of human CAR LBD; expressed in transfected cells; host or cells: HepG2
T2 sequence (Q14994 151-348 isoform Q14994-2 limits assumed): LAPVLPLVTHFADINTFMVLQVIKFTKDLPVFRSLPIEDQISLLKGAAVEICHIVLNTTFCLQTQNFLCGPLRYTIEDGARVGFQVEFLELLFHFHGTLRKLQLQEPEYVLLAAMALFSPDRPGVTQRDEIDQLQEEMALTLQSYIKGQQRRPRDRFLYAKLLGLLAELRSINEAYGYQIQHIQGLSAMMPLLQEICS
T2 sequence (Q14994 103-150 isoform Q14994-2 limits assumed): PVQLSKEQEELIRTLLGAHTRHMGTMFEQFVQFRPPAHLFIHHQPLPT
Experimental: A ligand promotes connection of the two parts of CAR LBD resulting in luciferase transactivation. Luminescence activity in the cell lysate was measured using a commercially available luciferase detection system (Catalog Number E1960, Dual Luciferase Reporter Assay Kit, Promega, Madison, Wis., USA). The data are presented as means and S.D. and expressed as the fold-change of firefly luciferase activity normalized to Renilla luciferase activity in each sample and relative to the vehicle (DMSO 0.1%)-treated controls, which were set at 1.

[3] = test system: CAR+A-EGFP fusion protein; assay: CAR+A-EGFP translocation into nucleus in COS-1 cells; format: cell-based; details: 10 μM/L, 48 h
[4] = biological target: T3, glucocorticoid receptor (Homo sapiens, UniProt P04150); assay: Luciferase reporter assay with GAL4 construct with LBD, glucocorticoid receptor; format: cell-based; details: 10 μM/L
T3 construct: luciferase reporter assays with a GAL4 constructs with LBD of tested nuclear receptors; expressed in transfected cells
T3 sequence (P04150 524-758 limits assumed): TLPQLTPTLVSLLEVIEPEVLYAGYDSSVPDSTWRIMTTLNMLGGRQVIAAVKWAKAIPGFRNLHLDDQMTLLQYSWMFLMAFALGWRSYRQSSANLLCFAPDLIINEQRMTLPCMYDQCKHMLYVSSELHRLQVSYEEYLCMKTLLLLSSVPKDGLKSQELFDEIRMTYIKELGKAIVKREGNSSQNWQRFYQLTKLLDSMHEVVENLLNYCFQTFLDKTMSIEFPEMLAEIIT

[5] = biological target: T4, estradion α receptor (Homo sapiens, UniProt P03372); assay: Luciferase reporter assay with GAL4 construct with LBD, estradion α receptor; format: cell-based; details: 10 μM/L
T4 construct: luciferase reporter assays with a GAL4 constructs with LBD of tested nuclear receptors; expressed in transfected cells
T4 sequence (P03372 311-547 limits assumed): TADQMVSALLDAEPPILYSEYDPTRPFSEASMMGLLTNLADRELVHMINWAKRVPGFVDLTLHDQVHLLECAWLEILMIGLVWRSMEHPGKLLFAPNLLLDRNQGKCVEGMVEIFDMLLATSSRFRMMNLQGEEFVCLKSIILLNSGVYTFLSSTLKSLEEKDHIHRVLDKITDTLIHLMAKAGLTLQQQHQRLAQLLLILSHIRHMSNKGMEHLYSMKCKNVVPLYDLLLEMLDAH

[6] = biological target: T5, PPARγ (Homo sapiens, UniProt P37231); assay: Luciferase reporter assay with GAL4 construct with LBD, PPARγ; format: cell-based; details: 10 μM/L
T5 construct: luciferase reporter assays with a GAL4 constructs with LBD of tested nuclear receptors; expressed in transfected cells
T5 sequence (P37231 238-503 limits assumed): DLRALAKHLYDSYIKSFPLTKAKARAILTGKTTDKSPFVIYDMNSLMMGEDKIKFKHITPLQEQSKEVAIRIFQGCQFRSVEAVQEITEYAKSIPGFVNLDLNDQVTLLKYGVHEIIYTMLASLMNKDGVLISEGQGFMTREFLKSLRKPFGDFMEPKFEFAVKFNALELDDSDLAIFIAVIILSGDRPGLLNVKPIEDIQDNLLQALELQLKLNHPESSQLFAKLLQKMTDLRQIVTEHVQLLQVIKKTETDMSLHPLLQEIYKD

[7] = biological target: T6, PPARδ (Homo sapiens, UniProt Q03181); assay: Luciferase reporter assay with GAL4 construct with LBD, PPARδ; format: cell-based; details: 10 μM/L
T6 construct: luciferase reporter assays with a GAL4 constructs with LBD of tested nuclear receptors; expressed in transfected cells
T6 sequence (Q03181 211-439 limits assumed): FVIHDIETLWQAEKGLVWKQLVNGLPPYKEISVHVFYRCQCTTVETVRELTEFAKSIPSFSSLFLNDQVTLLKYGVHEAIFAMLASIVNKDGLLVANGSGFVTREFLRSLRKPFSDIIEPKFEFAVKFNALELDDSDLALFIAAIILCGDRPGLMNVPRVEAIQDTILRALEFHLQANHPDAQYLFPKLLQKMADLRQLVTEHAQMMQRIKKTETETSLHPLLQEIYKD

[8] = biological target: T7, vitamin D receptor (Homo sapiens, UniProt P11473); assay: Luciferase reporter assay with GAL4 construct with LBD, vitamin D receptor; format: cell-based; details: 10 μM/L
T7 construct: luciferase reporter assays with a GAL4 constructs with LBD of tested nuclear receptors; expressed in transfected cells
T7 sequence (P11473 127-423 limits assumed): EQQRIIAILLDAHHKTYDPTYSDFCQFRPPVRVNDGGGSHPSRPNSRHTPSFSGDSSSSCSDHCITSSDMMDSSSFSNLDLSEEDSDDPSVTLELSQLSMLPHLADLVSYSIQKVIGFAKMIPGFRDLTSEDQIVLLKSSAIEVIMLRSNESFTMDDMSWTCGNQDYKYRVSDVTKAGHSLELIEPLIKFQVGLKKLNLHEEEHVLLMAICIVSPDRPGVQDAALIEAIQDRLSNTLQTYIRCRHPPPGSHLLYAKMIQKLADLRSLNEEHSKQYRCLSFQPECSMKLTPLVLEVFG

[9] = test system: thyroid hormone receptors; assay: Luciferase reporter assay with GAL4 construct with LBD, thyroid hormone receptors; format: cell-based, human; details: 10 μM/L
[10] = biological target: T8, human potassium channel hERG (Homo sapiens, UniProt Q12809); assay: FluxOR II Green Potassium Ion Channel Assay with HEK293-hERG cells; format: cell-based; details: at 20 μM/L
T8 construct: expressed in transfected cells; host or cells: HEK293-hERG
T8 sequence (Q12809 whole entry): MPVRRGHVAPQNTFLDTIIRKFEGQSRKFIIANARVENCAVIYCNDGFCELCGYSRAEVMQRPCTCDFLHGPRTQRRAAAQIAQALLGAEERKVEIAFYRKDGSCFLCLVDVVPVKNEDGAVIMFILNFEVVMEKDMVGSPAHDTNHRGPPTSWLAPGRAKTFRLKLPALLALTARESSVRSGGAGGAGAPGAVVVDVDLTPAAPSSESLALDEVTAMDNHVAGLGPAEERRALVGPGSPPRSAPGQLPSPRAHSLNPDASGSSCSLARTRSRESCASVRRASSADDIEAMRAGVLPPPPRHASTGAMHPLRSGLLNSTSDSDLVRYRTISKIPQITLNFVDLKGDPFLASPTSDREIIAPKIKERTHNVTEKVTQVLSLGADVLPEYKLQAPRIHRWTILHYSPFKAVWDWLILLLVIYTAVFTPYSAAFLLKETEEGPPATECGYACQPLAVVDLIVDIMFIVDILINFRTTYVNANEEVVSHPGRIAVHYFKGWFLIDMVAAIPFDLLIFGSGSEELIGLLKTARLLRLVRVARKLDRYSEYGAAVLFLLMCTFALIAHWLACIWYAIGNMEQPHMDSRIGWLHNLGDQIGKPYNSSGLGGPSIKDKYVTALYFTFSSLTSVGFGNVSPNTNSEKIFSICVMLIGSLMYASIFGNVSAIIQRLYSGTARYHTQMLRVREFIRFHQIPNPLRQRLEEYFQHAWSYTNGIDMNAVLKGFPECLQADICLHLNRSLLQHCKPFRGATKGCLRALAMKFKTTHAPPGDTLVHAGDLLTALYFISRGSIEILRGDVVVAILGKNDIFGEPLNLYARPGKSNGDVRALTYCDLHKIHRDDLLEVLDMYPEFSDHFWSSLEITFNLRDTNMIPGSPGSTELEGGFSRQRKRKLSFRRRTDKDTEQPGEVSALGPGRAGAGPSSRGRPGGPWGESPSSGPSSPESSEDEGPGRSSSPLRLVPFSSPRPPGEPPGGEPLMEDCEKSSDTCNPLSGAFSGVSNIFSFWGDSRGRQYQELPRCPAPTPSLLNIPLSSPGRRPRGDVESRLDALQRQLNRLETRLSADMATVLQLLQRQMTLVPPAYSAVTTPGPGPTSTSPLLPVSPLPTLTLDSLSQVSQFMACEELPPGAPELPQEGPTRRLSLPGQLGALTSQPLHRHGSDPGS
Experimental: For compound of EXAMPLE 93, The FluxOR™ II Green Potassium Ion Channel Assay with HEK293-hERG cells (stably expressing human potassium channel hERG) seeded on Poly-D-Lysine-coated 384-well microplates (Corning, Cat. #356663) was used according to the manufacturer's instructions. hERG stimulation buffer containing thallium and potassium was added and the intracellular fluorescence was measured.

[11] = Stability in human plasma; format: in vitro ADME; details: over 120 minutes
[12] = Metabolic stability in human liver S9 fraction; format: in vitro ADME; details: read-out: T1/2 in human liver S9 fraction
[13] = biological target: T9, human CYP3A4 (Homo sapiens, UniProt P08684); assay: Commercial CYP450-Glo inhibition assay, CYP3A4; format: in vitro ADME
T9 construct: purchased Promega V8802
T9 sequence (P08684 whole entry): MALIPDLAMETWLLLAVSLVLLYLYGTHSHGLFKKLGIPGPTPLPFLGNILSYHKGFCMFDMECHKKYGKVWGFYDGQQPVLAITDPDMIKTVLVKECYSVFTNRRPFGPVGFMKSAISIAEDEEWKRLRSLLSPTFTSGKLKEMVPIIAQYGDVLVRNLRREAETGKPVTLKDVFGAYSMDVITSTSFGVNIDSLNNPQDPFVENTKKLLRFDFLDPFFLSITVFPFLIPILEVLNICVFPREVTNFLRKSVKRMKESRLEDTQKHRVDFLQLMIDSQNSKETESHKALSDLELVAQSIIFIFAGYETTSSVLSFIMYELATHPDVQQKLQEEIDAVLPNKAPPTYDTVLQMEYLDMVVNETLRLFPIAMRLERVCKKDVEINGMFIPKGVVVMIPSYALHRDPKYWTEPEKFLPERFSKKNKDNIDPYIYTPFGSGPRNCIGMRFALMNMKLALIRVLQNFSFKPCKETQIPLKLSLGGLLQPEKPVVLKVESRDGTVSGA

[14] = Repeated Dose 7-day Oral Toxicity Study in Rats; format: in vivo; details: 1 and 10 mg/kg
Experimental: The studies were conducted on female rats.

[15] = format: in vivo
Experimental: Livers were sampled 24 hours after the last application into liquid nitrogen. In case of i.p. Glucose Tolerance test (IPGTT), each mouse on chronic high fat diet received i.p. application of 20% glucose solution at the dose of lg glucose per kg b.w. Blood glucose concentration was analyzed with a glucometer from blood sampled from the tail. In case of i.p. Isulin Tolerance test (IPITT), mice received insulin administered via i.p. application in the dose of 0.75 mU/g b.w.

[16] = in vivo; details: C57BL/6, mouse, 10 mg/kg
[17] = biological target: T10, human PXR (Homo sapiens, UniProt O75469); assay: PXR-responsive luciferase reporter gene assay in HepG2 cells
T10 sequence (O75469 1-434): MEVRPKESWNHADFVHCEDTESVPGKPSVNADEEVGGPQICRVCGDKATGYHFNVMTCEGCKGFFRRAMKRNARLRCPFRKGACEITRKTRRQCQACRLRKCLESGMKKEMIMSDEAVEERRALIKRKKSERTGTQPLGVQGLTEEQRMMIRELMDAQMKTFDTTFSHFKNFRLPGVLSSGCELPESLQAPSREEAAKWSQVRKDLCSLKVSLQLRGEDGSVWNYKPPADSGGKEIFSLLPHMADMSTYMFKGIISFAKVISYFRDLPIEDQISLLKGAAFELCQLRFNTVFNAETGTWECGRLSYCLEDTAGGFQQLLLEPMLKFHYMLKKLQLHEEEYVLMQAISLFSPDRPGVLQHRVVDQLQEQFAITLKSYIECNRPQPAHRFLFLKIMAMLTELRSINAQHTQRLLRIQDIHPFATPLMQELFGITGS

[18] = 10 mg/kg b.w. by gavage for 4 weeks, 60% high-fat diet 8 weeks

With `NC(=O)c1cc(Cn2cc(-c3c(-c4ccc(Cl)cc4)nc4cc(F)ccn34)nn2)ccc1Cl` [Example 93, 2-Chloro-5-((4-(2-(4-chlorophenyl)-7-fluoroimidazo[1,2-a]pyridin-3-yl)-1H-1,2,3-triazol-1-yl)methyl)benzamide] as the compound, how does the pEC50 [1] read?
The pEC50 was 7.15.

What about the pEC50 [2] of the same compound?
Its pEC50 is 6.42.

What about the “CAR+A-EGFP fusion protein translocation into nucleus” value [3] of the same compound?
Its value is “significantly stimulates”.

And the “activation of glucocorticoid receptor” value [4]?
Its value is “do not activate”.

And the “activation of estradion α receptor” value [5]?
The value was “do not activate”.

And the “activation of PPARγ” value [6]?
Its value is “do not activate”.

And the “activation of PPARδ” value [7]?
Its value is “do not activate”.

What about the “activation of vitamin D receptor” value [8] of the same compound?
Its value is “do not activate”.

And the “activation of thyroid hormone receptors” value [9]?
Its value is “do not activate”.

What about the “interference with hERG activity (FluxOR, HEK293-hERG)” value [10] of the same compound?
Its value is “do not interfere with hERG activity”.

What about the “stability in human plasma” value [11] of the same compound?
Its value is “stable”.

And the half-life at 2 μM [12]?
Its half-life at 2 μM is > 2.83 h.

What about the pIC50 [13] of the same compound?
Its pIC50 is < 5.00.

And the “clinical signs of toxicity, Repeated Dose 7-day Oral Toxicity Study in Rats” value [14]?
The value was “No significant clinical signs of toxicity”.

What about the “insulin sensitivity in IPGTT and IPITT” value [15, 18] of the same compound?
Its value is “stimulatory effect on insulin sensitivity; also recorded: alleviates insuline resistance and stimulates the effect of insuline”.

And the “liver hypertrophy (liver-to-body weight ratio)” value [15, 18]?
Its value is “does not stimulate significantly liver hypertrophy”.

What about the “Mki67 mRNA in mouse liver” value ([15]; 10 mg/kg, 4 weeks) of the same compound?
The value was “did not significantly up-regulate”.

And the “RNA level of Fasn in mouse liver” value ([15]; 10 mg/kg, 4 weeks)?
The value was “significantly decrease”.

What about the “RNA level of Scd1 in mouse liver” value ([15]; 10 mg/kg, 4 weeks) of the same compound?
Its value is “significantly decrease”.

What about the “hepatotoxicity (ALT, AST, ALP, LDH biochemical markers)” value ([15]; 10 mg/kg, 4 weeks) of the same compound?
Its value is “does not display hepatotoxicity”.

And the “plasma LDL” value ([15]; 10 mg/kg, 4 weeks)?
The value was “has an effect; also recorded: decreases”.

What about the plasma cholesterol ([15]; 10 mg/kg, 4 weeks) of the same compound?
The plasma cholesterol was “has an effect; also recorded: decreases”.

What about the body weight ([15]; 10 mg/kg, after 4 weeks of application) of the same compound?
The body weight was “decrease body weight; also recorded: reduces the body weight”.

And the half-life ([16]; ip)?
Its half-life is 3.62 h.

And the half-life ([16]; oral)?
Its half-life is 2.83 h.

And the “PXR % of RIF activity (10 μM) at 10 μM” value ([17]; tested at 10 μM, HepG2, 24 h)?
The value was “No activation”.

And the “selectivity and specificity for human CAR in comparison with CITCO (FIG. 2)” value ([17]; versus PXR)?
Its value is “highly selective and specific for human CAR”.
